{
  "source": "patent US6551602B1",
  "about": "“Skin care composition containing conjugated linoleic acid and a phenolic compound” (Conopco, Inc., priority 1999, dated 2003)",
  "type_in_all_cases": "cell-based",
  "key": {"[1]": {"test_system": "ICAM production by human skin fibroblasts", "test": "Fibroblast ICAM-1 assay (PMA-induced)", "settings": "PMA 10 nM", "procedure": "Fibroblasts PGE2 and ICAM Assay Intracellular adhesion molecules (ICAM) and PEG2 production by human skin fibroblasts can be induced by the inflammatory stimulus PMA (phorbal myristate acetate). PMA represents an external stressor which induces oxidative stress and inflammatory responses in cells. This model is used to model inflammation in vivo. Primary human foreskin fibroblasts at passage 2 (P2) were seeded into 96-well plates at 10000 cells/well and maintained for 24 hours in an atmosphere of 5% carbon dioxide in Dulbeccos Modified Eagles Medium (DMEM) supplemented with 10% foetal calf serum. The test substances as indicated in the table 7 below were added to fresh cell media (DMEM, supplemented with 10% foetal calf serum) in dimethylsulphoxide and ethanol final concentration<1%) in triplicate and incubated for a further 24 hours. […] The fibroblasts/media were then analysed as described below immediately or snap frozen in liquid nitrogen and stored at −70° C. for future analysis. The cells were then counted and data from the dot-blot analysis subsequently standardised to cell number. […] The soluble ICAM-1 was assessed with commercially available immunoenzymometric assay kit (R&D Systems). Concentrations of ICAM-1 in the samples were determined based on parallel running standard curve."}, "[2]": {"test_system": "PGE2 production by human skin fibroblasts", "test": "Fibroblast PGE2 assay (PMA-induced)", "settings": "PMA 10 nM", "procedure": "Fibroblasts PGE2 and ICAM Assay\nIntracellular adhesion molecules (ICAM) and PEG2 production by human skin fibroblasts can be induced by the inflammatory stimulus PMA (phorbal myristate acetate). PMA represents an external stressor which induces oxidative stress and inflammatory responses in cells. This model is used to model inflammation in vivo.\nPrimary human foreskin fibroblasts at passage 2 (P2) were seeded into 96-well plates at 10000 cells/well and maintained for 24 hours in an atmosphere of 5% carbon dioxide in Dulbeccos Modified Eagles Medium (DMEM) supplemented with 10% foetal calf serum. The test substances as indicated in the table 7 below were added to fresh cell media (DMEM, supplemented with 10% foetal calf serum) in dimethylsulphoxide and ethanol final concentration<1%) in triplicate and incubated for a further 24 hours. Phorbal myristate acetate (PMA) (Sigma) was added 10 nM to the media and the cells incubated for a further 24 hours. […] The fibroblasts/media were then analysed as described below immediately or snap frozen in liquid nitrogen and stored at −70° C. for future analysis. The cells were then counted and data from the dot-blot analysis subsequently standardised to cell number.\nProstaglandin E2 (PGE2) Assay\nVolumes of 50 μl culture medium were taken for PGE2 assay after gently shaking the culture plate. PGE2 levels in the medium were determined with a Biotrak PGE2 immunoassay kit (Amersham, UK). The assay is based on the competition between unlabelled PGE2 in the sample and a fixed quantity of horseradish peroxidase labelled PGE2 for a limited amount of fixed PGE2 specific antibody. Concentrations of unlabelled sample PGE2 are determined according to a standard curve which was obtained at the same time."}, "[3]": {"test_system": "decorin synthesis in human dermal fibroblasts", "test": "Dot blot assay for decorin protein in dermal fibroblast conditioned medium", "settings": "24 h, relative to vehicle treated control = 100 arbitrary units", "procedure": "Procedure for Measuring Procollagen-I and Decorin Synthesis in Human Dermal Fibroblasts\nPreparation of Dermal Fibroblast Conditioned Medium\nPrimary human foreskin fibroblasts at passage 2 (P2) were seeded into 12-well plates at 10000 cells/cm^2 and maintained for 24 hours in an atmosphere of 5% carbon dioxide and 4% oxygen in Dulbeccos Modified Eagles Medium (DMEM) supplemented with 10% foetal calf serum. After this time the cells were washed with serum free DMEM and then incubated in fresh serum free DMEM for a further 60 hours.\nThe fibroblast monolayers were then washed again with serum free DMEM. […] This fibroblast conditioned medium was either analysed immediately or snap frozen in liquid nitrogen and stored at −70° C. for future analysis. The cells were then counted and data from the dot-blot analysis subsequently standardised to cell number. […]\nMembranes prepared for decorin analysis were blocked with 3% (w/v) BSA/0.1% (v/v) Tween 20 in PBS, whilst those for procollagen-I analysis were blocked with 5% (w/v) non fat dried milk powder/0.05% Tween 20 in PBS. […] Dot intensity was assessed by computer-assisted image analysis using the quantification tools in ImageQuant™, standardised to cell number and the effects of various test reagents on decorin and procollagen-I synthesis were determined relative to a vehicle treated control value of 100 arbitrary units. […]"}},
  "data": [
    {"molecule": "O=C(O[C@@H]1Cc2c(O)cc(O)cc2O[C@@H]1c1cc(O)c(O)c(O)c1)c1cc(O)c(O)c(O)c1", "note": "[EGCG, epigallocatechin gallate]", "values": [
      {"measurement": "% of inhibition of fibroblast ICAM production", "setting": "[1]; EGCG 5 μM", "result": 4.5, "unit": "%"},
      {"measurement": "% of Inhibition of Fibroblast PGE2 Levels", "setting": "[2]; EGCG 5 μM", "result": 35.6, "unit": "%"},
      {"measurement": "Decorin", "setting": "[3]; 0.5 μg/ml EGCG", "result": "−99.6", "unit": "%"}
    ]},
    {"molecule": "O=c1c(-c2ccc(O)cc2)coc2cc(O)cc(O)c12", "note": "[genistein]", "values": [
      {"measurement": "inhibition at 5 µM", "setting": "[2]; Homo sapiens, Skin fibroblast, genistein 5 μM, read-out: % of Inhibition of Fibroblast PGE2 Levels", "result": 52, "unit": "%"}
    ]},
    {"molecule": "conjugated linoleic acid [CLA]", "values": [
      {"measurement": "% of inhibition of fibroblast ICAM production", "setting": "[1]; CLA 1 μM", "result": 27.7, "unit": "%"},
      {"measurement": "% of Inhibition of Fibroblast PGE2 Levels", "setting": "[2]; CLA 0.1 μM", "result": 16.9, "unit": "%"},
      {"measurement": "% of Inhibition of Fibroblast PGE2 Levels", "setting": "[2]; CLA 5 μM", "result": 14.5, "unit": "%"},
      {"measurement": "Decorin", "setting": "[3]; 0.1 μM CLA", "result": 68.29, "unit": "%"}
    ]}
  ]
}
